In this test the test system is erythrocytes. As to the kind of experiment: Visual separation (sedimentation) of erythrocyte and nucleated cell fractions of blood samples. Type of test: cell-based. As to conditions: for order from best to worst of each substance at the separation / separation of whole blood: Example 4; for order from best to worst of each substance at the separation: with 2.5% Dextran 70; for separation of whole blood: whole blood 1:1 with PBS composition of 2.5% Dextran 70 plus substance at 1-5%, 30 minutes room temperature. The method, then: Umbilical cord blood was collected into standard Baxter 250 ml (nominal) blood bags containing 35 ml of a citrate phosphate dextrose adenine (CPDA) anticoagulant solution.
A solution containing dextran and a further constituent selected from dimethyl sulphoxide (DMSO), dimethyl glycine (DMG), L-valine, L-proline, β-alanine, leucine, isoleucine and glycine, in phosphate-buffered saline (PBS), was prepared. This solution was added to a blood sample at a ratio of 1:1, this was then mixed thoroughly. Separation of the erythrocyte and nucleated cell fractions took place at room temperature within a time period of 15 or 30 minutes. […]
Whole blood samples were mixed with 1:1 with PBS compositions comprising 2.5% Dextran 70 plus DMSO, L-valine, L-proline, β-alanine, leucine, isoleucine, glycine and DMG. Each of the amino acids and the DMSO were tested at concentration levels of 1%, 1.5%, 2%, 2.5%, 3%, 3.5%, 4%, 4.5% and 5% in the PBS composition. After mixing, each sample was left for 30 minutes at room temperature. […]

Setting [1] is: dextran 70 Mw final 2.5% + substance final 2.5% w/v, after 30 minutes, data not shown.

Results on eight compounds are retold here after patent publication US20190218508A1, “METHODS OF CELL SEPARATION” (CELLS4LIFE GROUP LLP, priority 2013, published 2019).

On to `C[S+](C)[O-]` [DMSO, dimethyl sulphoxide], for which the “order from best to worst of each substance at the separation” value (“order from best to worst” for short) was “DMSO>L-valine>DMG>L-proline>β-alanine>Leucine/isoleucine/glycine”. Moreover, the “separation of erythrocytes and nucleated cells” value (dextran 500 Mw final 2.5% w/v + DMSO final 1% to 5% v/v, after 15 minutes and 30 minutes) is listed as “clear separation”. In addition, the “separation of the erythrocytes from the nucleated cells” value (umbilical cord blood 1:1, dextran 500 Mw final 2.5% w/v + DMSO final 2% or 2.5% v/v, 30 minutes) is on record as “clear separation”.
Consider `NCCC(=O)O` [β-alanine], for which the “separation of whole blood” value is recorded as “did very little” and the “order from best to worst” value was “DMSO>L-valine>DMG>L-proline>β-alanine>Leucine/isoleucine/glycine”. For the same compound, the “separation of erythrocytes and nucleated cells” value under setting [1] is on record as “little if any separation”.
The like results for `NCC(=O)O` [glycine] were, in that order, “almost total inactivity”, “DMSO>L-valine>DMG>L-proline>β-alanine>Leucine/isoleucine/glycine” and “little if any separation”.
The like results for `CC(C)[C@H](N)C(=O)O` [L-valine] were, in that order, “performed better than DMG”, “DMSO>L-valine>DMG>L-proline>β-alanine>Leucine/isoleucine/glycine” and “clear separation”.
The like results for `O=C(O)[C@@H]1CCCN1` [L-proline] were, in that order, “did very little”, “DMSO>L-valine>DMG>L-proline>β-alanine>Leucine/isoleucine/glycine” and “little if any separation”.
For `CC[C@H](C)[C@H](N)C(=O)O` [isoleucine], the “separation of whole blood” value was “almost total inactivity” and the “order from best to worst” value is on record as “DMSO>L-valine>DMG>L-proline>β-alanine>Leucine/isoleucine/glycine”. Besides, the “separation of erythrocytes and nucleated cells” value under setting [1] is “little if any separation”.
As to `CN(C)CC(=O)O` [DMG, dimethyl glycine], the “order from best to worst” value is “DMSO>L-valine>DMG>L-proline>β-alanine>Leucine/isoleucine/glycine”. Moreover, the “separation of erythrocytes and nucleated cells” value under setting [1] is given as “clear separation”.
`CC(C)C[C@H](N)C(=O)O` [leucine]: the “separation of whole blood” value was “almost total inactivity” and the “order from best to worst” value is reported as “DMSO>L-valine>DMG>L-proline>β-alanine>Leucine/isoleucine/glycine”. Moreover, the “separation of erythrocytes and nucleated cells” value under setting [1] is reported as “little if any separation”.
